In patent US8211909B2, “Treatment of antibiotic-resistant bacteria infection” (TaiGen Biotechnology Co., Ltd., priority 2008, dated 2012):
Converted amounts (≈) assume the structure as drawn. Read-outs that look alike come from different tables or passages of the source. Blank lines part the entries; values can stand above or below the compound they belong to.

Assays:
[1] = system: Methicillin-resistant Staphylococcus aureus (MRSA) isolates; assay: MIC by broth microdilution (CLSI) against CAN-ICU MRSA isolates; format: cell-based; conditions: Staphylococcus aureus; for MIC50: read-out: MIC50; for MIC90: read-out: MIC90
Text: MRSA isolates (n=193) were obtained as part of the Canadian National Intensive Care Unit (CAN-ICU) Study. 19 medical centers from all regions of Canada with active ICUs participated in the CAN-ICU study included. They were requested to only obtain “clinically significant” specimens from patients with a presumed infectious disease. Surveillance swabs, eye, ear, nose and throat swabs were excluded. Anaerobic organisms and fungal organisms were also excluded.
From September 2005-June 2006 (inclusive), each center collected a maximum of 300 consecutive pathogens isolated from blood, urine, tissue/wound, and respiratory specimens (one pathogen per cultured site per patient) of ICU patients. These isolates were shipped to the reference laboratory (Health Sciences Centre, Winnipeg, Canada) on Amies charcoal swabs, subcultured in appropriate media, and stocked in skim milk at −80° C.
All isolates underwent mecA PCR, as well as molecular characterization (including PVL analysis and fingerprinting), as previously described, to assess whether they were community-associated or healthcare-associated (Christianson et al., J Clin Microbiol. 2007, 45 (6): 1904-11; Mulvey et al., J Clin. Microbiol. 2001, 39(10): 3481-5; Mulvey et al., Emerg Infect Dis. 2005,11(6): 844-50; Oliveira et al., Antimicrob Agents Chemother. 2002, 46(7): 2155-61). The isolates were also subtyped using pulsed-field gel electrophoresis (PFGE) following the Canadian standardized protocol as previously described (Mulvey et al., J Clin Microbiol. 2001, 39(10): 3481-5). Their PFGE fingerprints thus obtained were analyzed with BioNumerics v3.5 (Applied Maths St. Marten-Latem, Belgium) using a position tolerance of 1.0 and an optimization of 1.0. Strain relatedness was determined as previously described (Tenover et al., 1995). The fingerprints of the isolates were compared to the national MRSA fingerprint database and were grouped into one of 10 Canadian epidemic MRSA (CMRSA-1, CMRSA-2, etc) as previously described (Mulvey et al., Emerg Infect Dis. 2005,11(6):844-50).
Compound 1 and other antibiotics were tested for their inhibitory activity against the MRSA isolates using the broth microdilution guidelines as stipulated by the Clinical and Laboratory Standards Institute.

[2] = system: H. pylori isolates; assay: MIC by agar dilution against 200 H. pylori isolates (Taiwan); format: cell-based, Helicobacter pylori
Method: MICs were determined using the agar dilution methods recommended by the Clinical and Laboratory Standards Institute (CLSI-M100-S18).

[3] = system: Staphylococcus aureus strains (MRSA, hVISA, VISA, VRSA, quinolone-resistant MRSA); assay: MIC by agar dilution against Staphylococcal strains (MRSA, hVISA, VISA, VRSA, quinolone-resistant MRSA); format: cell-based; conditions: Staphylococcus aureus
Method: Compound 1 was tested for its inhibitory effect against 26 Methicillin-resistant Staphylococcus aureus (MRSA) strains, 2 hetero-Vancomycin intermediate Staphylococcus aureus (hVISA) strains, 24 Vancomycin-intermediate Staphylococcus aureus (VISA) strains, 5 Vancomycin-resistant Staphylococcus aureus (VRSA) strains, and 31 quinolone-resistant Vancomycin-susceptibale MRSA strains with defined mutations in QRDR. These mutations were determined by sequencing analysis of the QRDR (gyrA, gyrB, grlA, and grlB). Efflux testing was performed by the reserpine method (Brenwald, et al., Antimicrob. Agents Chemother. 1998, 42: 2032-2035).

[4] = MRSA (n = 193), read-out: MIC Range Max
[5] = MRSA (n = 193), read-out: MIC Range Min
[6] = hVISA(2) + VISA (24) + VRSA (5)
[7] = read-out: MIC Range, Quinolone-resistant MRSA (31)
[8] = read-out: MIC Range, hVISA(2) + VISA (24) + VRSA (5)
[9] = Helicobacter pylori, 200 isolates of H. pylori
[10] = MRSA / USA100, USA 100/800 (HA-MRSA)
[11] = MRSA / USA200, USA 200 (HA-MRSA)
[12] = MRSA / USA300, USA 300 (CA-MRSA)
[13] = MRSA / USA400, USA 400 (CA-MRSA)
[14] = MRSA / USA600, USA 600 (HA-MRSA)

Structure (SMILES): CC[C@H]1OC(=O)[C@H](C)[C@@H](O[C@H]2C[C@@](C)(OC)[C@@H](O)[C@H](C)O2)[C@H](C)[C@@H](O[C@@H]2O[C@H](C)C[C@H](N(C)C)[C@H]2O)[C@](C)(OC)C[C@@H](C)C(=O)[C@H](C)[C@@H](O)[C@]1(C)O [Clarithromycin]
MIC50 ([1]; MRSA (n = 193)): > 32 µg/mL
MIC90 ([1]; MRSA (n = 193)): > 32 µg/mL
MIC [1, 4]: > 32 µg/mL
MIC [1, 5]: 0.25 µg/mL (≈ 0.334 µM)
share of isolates resistant ([2]; 200 H. pylori isolates, resistance: amoxicillin MICs≧0.5, clarithromycin ≧1, metronidazole ≧8, ciprofloxacin ≧1, levofloxacin ≧1 μg/mL): 6%

Structure (SMILES): CCC[C@@H]1C[C@@H](C(=O)N[C@@H]([C@H]2O[C@H](SC)[C@H](O)[C@@H](O)[C@H]2O)[C@H](C)Cl)N(C)C1 [Clindamycin]
MIC50 ([1]; MRSA (n = 193)): > 8 µg/mL
MIC90 ([1]; MRSA (n = 193)): > 8 µg/mL
MIC [1, 4]: > 8 µg/mL
MIC [1, 5]: ≤ 0.12 µg/mL

Structure (SMILES): CCCCCCCCCC(=O)N[C@@H](Cc1c[nH]c2ccccc12)C(=O)N[C@H](CC(N)=O)C(=O)N[C@@H](CC(=O)O)C(=O)N[C@@H]1C(=O)NCC(=O)N[C@@H](CCCN)C(=O)N[C@@H](CC(=O)O)C(=O)N[C@H](C)C(=O)N[C@@H](CC(=O)O)C(=O)NCC(=O)N[C@H](CO)C(=O)N[C@@H]([C@H](C)CC(=O)O)C(=O)N[C@@H](CC(=O)c2ccccc2N)C(=O)O[C@@H]1C [Daptomycin]
MIC50 ([1]; MRSA (n = 193)): 0.25 µg/mL (≈ 0.154 µM)
MIC90 ([1]; MRSA (n = 193)): 0.5 µg/mL (≈ 0.309 µM)
MIC [1, 4]: 0.5 µg/mL (≈ 0.309 µM)
MIC [1, 5]: 0.25 µg/mL (≈ 0.154 µM)
MIC50 ([3]; MRSA (26)): 1 µg/mL (≈ 0.617 µM)
MIC90 ([3]; MRSA (26)): 1 µg/mL (≈ 0.617 µM)
MIC50 ([3]; Quinolone-resistant MRSA (31)): 0.25 µg/mL (≈ 0.154 µM)
MIC90 ([3]; Quinolone-resistant MRSA (31)): 0.25 µg/mL (≈ 0.154 µM)
MIC50 [3, 6]: 1 µg/mL
MIC90 [3, 6]: 2 µg/mL
MIC ([3]; read-out: MIC Range, MRSA (26)): 0.5 to 1 µg/mL (≈ 0.309 to 0.617 µM)
MIC [3, 7]: 0.12 to 1 µg/mL (≈ 0.074 to 0.617 µM)
MIC [3, 8]: 0.12 to 4 µg/mL

Structure (SMILES): CC(=O)NC[C@H]1CN(c2ccc(N3CCOCC3)c(F)c2)C(=O)O1 [Linezolid]
MIC50 [1, 10]: 2 µg/mL (≈ 5.93 µM)
MIC90 [1, 10]: 2 µg/mL (≈ 5.93 µM)
MIC50 [1, 11]: 2 µg/mL (≈ 5.93 µM)
MIC90 [1, 11]: 2 µg/mL (≈ 5.93 µM)
MIC50 [1, 12]: 1 µg/mL (≈ 2.96 µM)
MIC90 [1, 12]: 2 µg/mL (≈ 5.93 µM)
MIC50 [1, 13]: 2 µg/mL (≈ 5.93 µM)
MIC90 [1, 13]: 2 µg/mL (≈ 5.93 µM)
MIC50 [1, 14]: 2 µg/mL (≈ 5.93 µM)
MIC90 [1, 14]: 2 µg/mL (≈ 5.93 µM)
MIC50 ([1]; MRSA (n = 193)): 2 µg/mL (≈ 5.93 µM)
MIC90 ([1]; MRSA (n = 193)): 2 µg/mL (≈ 5.93 µM)
MIC [1, 4]: 4 µg/mL (≈ 11.9 µM)
MIC [1, 5]: 0.5 µg/mL (≈ 1.48 µM)
MIC50 ([3]; MRSA (26)): 4 µg/mL (≈ 11.9 µM)
MIC90 ([3]; MRSA (26)): 4 µg/mL (≈ 11.9 µM)
MIC50 ([3]; Quinolone-resistant MRSA (31)): 1 µg/mL (≈ 2.96 µM)
MIC90 ([3]; Quinolone-resistant MRSA (31)): 1 µg/mL (≈ 2.96 µM)
MIC50 [3, 6]: 1 µg/mL
MIC90 [3, 6]: 1 µg/mL
MIC ([3]; read-out: MIC Range, MRSA (26)): 2 to 4 µg/mL (≈ 5.93 to 11.9 µM)
MIC [3, 7]: 0.25 to 1 µg/mL (≈ 0.741 to 2.96 µM)
MIC [3, 8]: 0.5 to 2 µg/mL

Continued, values first:

MIC50 ([1]; MRSA (n = 193)): 128 µg/mL (≈ 282 µM)
MIC90 ([1]; MRSA (n = 193)): > 128 µg/mL
MIC [1, 4]: > 128 µg/mL
MIC [1, 5]: 2 µg/mL (≈ 4.4 µM)
Structure (SMILES): Cc1nnc(SCC2=C(C(=O)O)N3C(=O)[C@@H](NC(=O)Cn4cnnn4)[C@H]3SC2)s1 [Cefazolin]

MIC50 ([1]; MRSA (n = 193)): > 64 µg/mL
MIC90 ([1]; MRSA (n = 193)): > 64 µg/mL
MIC [1, 4]: > 64 µg/mL
MIC [1, 5]: 8 µg/mL (≈ 14.4 µM)
Structure (SMILES): CO/N=C(\C(=O)N[C@@H]1C(=O)N2C(C(=O)O)=C(CSc3nc(=O)c(=O)[nH]n3C)CS[C@H]12)c1csc(N)n1 [Ceftriaxone]

MIC50 [2, 9]: 60 µg/mL (≈ 154 µM)
MIC90 [2, 9]: 120 µg/mL (≈ 308 µM)
Structure (SMILES): CO/N=C1\CN(c2nc3c(cc2F)c(=O)c(C(=O)O)cn3C2CC2)CC1CN (stereo not shown) [Gemifloxacin]
